Data: patent publication US20230047825A1, “ANTIMICROBIAL PEPTIDES” (priority 2019, published 2023)
Values joined by “and” are separate entries in the source; they are usually repeats but may differ in a detail not shown here. Identical values can stand only once. Marks after values point to notes of the source that are not given here. Where a SMILES comes first, the peptide text is derived from it.

Assays:
[1] = Maximum Tolerated Dose (MTD) assessment, IV TID q8h: mortality, body weight, clinical observations; assay type: in vivo, mouse; settings: 5 mg/kg (IV, TID, q8h)
[2] = as above; assay type: in vivo, mouse; set-up: key to Irritability / Hyperactivity / Inc. Startle / Inc. Touch / Dec. Startle Response / Dec. Touch Response / Inc. Exploration / Dec. Exploration / Pinna / Placing / Tremor / Dec. Spont. Activity / Straub Tail / Reactivity / Righting / Ataxia / Convulsion C.T.C-T / Low Limb Post / Abdominal Tone / Limb Tone / Grip Strength / Salivation F.V. / Lacrimation / Diarrhea / Body Temperature / Piloerection / Inc. Palpebral Size / Dec. Palpebral Size / Others / Death: “−” no effects; “±”: Slight to moderate effects; +: Severe effects; “C.”: Cyanosis; “D.”: Depth; E: Edema; settings: for Body Weight, individual animals No. 1-4 / Mortality (total number of deaths/total number of animals): IV
Method: Tolerability analysis was conducted to determine the upper limit of D-PLEUROCIDIN-KR dosage. Test article solutions were intravenously (IV) administered to immunocompetent ICR mice with the dose schedule and concentrations indicated in the study design in the table below.
The animals were not infected. Doses were IV administered thrice (TID) with 8 h intervals (q8h) between doses. Animals were humanely euthanized after 3 days of the last treatment or at humane endpoints.
The MTD assessment was performed with immunocompetent female ICR mice, weighing 22 f 2 g. All animals were specific pathogen free.
Test articles were administered to animals by IV injections following the dose schedule, volumes, and concentrations indicated the Table above for MTD study. […] Animals were humanely euthanized if severe acute toxicity was observed during the experimental period.
The adverse effects were monitored at 5 minutes via cage-side observation after each subsequent IV administration on Day 1. Animals were observed again for mortality at 72 h after the last treatment. Body weights were recorded before each treatment and at 72 h after the last treatment. If overt toxicity was observed after the 1st or 2nd dose of a group, the 2nd or 3rd dose of that group was not administered.
Any adverse events observed were summarized. List of scores from observation assessments were also recorded.

[3] = 5 mg/kg, TID q8h, 24 h of 3rd dosing
[4] = 5 mg/kg, TID q8h, 48 h of 3rd dosing
[5] = 5 mg/kg, TID q8h, 72 h of 3rd dosing
[6] = 10 mg/kg, 24 h of 3rd dosing (2nd and 3rd doses not administered)
[7] = 10 mg/kg, 48 h of 3rd dosing (2nd and 3rd doses not administered)
[8] = 10 mg/kg, 72 h of 3rd dosing (2nd and 3rd doses not administered)
[9] = AUTONOMIC, 5 mg/kg IV, 5 minutes after 1st dosing, ICR mice, animals No. 1-4
[10] = AUTONOMIC, 10 mg/kg IV, 5 minutes after 1st dosing, ICR mice, animals No. 1-4

CC(C)C[C@@H](NC(=O)[C@@H](Cc1ccc(O)cc1)NC(=O)[C@@H](Cc1c[nH]cn1)NC(=O)[C@H](NC(=O)[C@@H](CC(C)C)NC(=O)[C@@H](C)NC(=O)[C@@H](C)NC(=O)[C@@H](CCCNC(=N)N)NC(=O)CNC(=O)[C@H](NC(=O)[C@@H](Cc1c[nH]cn1)NC(=O)[C@@H](CCCNC(=N)N)NC(=O)CNC(=O)[C@H](NC(=O)[C@@H](Cc1c[nH]cn1)NC(=O)[C@@H](C)NC(=O)[C@@H](C)NC(=O)[C@@H](CCCNC(=N)N)NC(=O)[C@@H](CCCNC(=N)N)NC(=O)[C@@H](Cc1ccccc1)NC(=O)[C@@H](Cc1ccccc1)NC(=O)[C@@H](CO)NC(=O)CNC(=O)[C@@H](Cc1c[nH]c2ccccc12)NC(=O)CN)C(C)C)C(C)C)[C@H](C)O)C(N)=O [D-pleurocidin-KR] (HELM PEPTIDE1{G.[dW].G.[dS].[dF].[dF].[dR].[dR].[dA].[dA].[dH].[dV].G.[dR].[dH].[dV].G.[dR].[dA].[dA].[dL].[dT].[dH].[dY].[dL].[am]}$$$$V2.0; N-terminus assumed)
tolerability [1]: tolerated | adverse effects after the first dose administration ([2]; 5 mg/kg): severe cyanosis, labored respiration and edema | Body Weight, individual animals No. 1-4 ([2]; 5 mg/kg, TID q8h, 1st dosing (recorded before treatment)): 25 g (3×) and 23 g | Body Weight, individual animals No. 1-4 ([2]; 5 mg/kg, TID q8h, 2nd dosing): 25 g (3×) and 23 g | Body Weight, individual animals No. 1-4 ([2]; 5 mg/kg, TID q8h, 3rd dosing): 25 g and 24 g (2×) and 23 g | Body Weight, individual animals No. 1-4 [2, 3]: 26 g and 25 g (2×) and 23 g | Mortality (total number of deaths/total number of animals) [2, 3]: 0/4 | Body Weight, individual animals No. 1-4 [2, 4]: 25 g (3×) and 23 g | Mortality (total number of deaths/total number of animals) [2, 4]: 0/4 | Body Weight, individual animals No. 1-4 [2, 5]: 26 g (3×) and 24 g | Mortality (total number of deaths/total number of animals) [2, 5]: 0/4 | Mortality (total number of deaths/total number of animals) ([2]; 5 mg/kg, TID, q8h, 5 min of 1st dosing): 0/4 | Mortality (total number of deaths/total number of animals) ([2]; 5 mg/kg, TID, q8h, 5 min of 2nd dosing): 0/4 | Mortality (total number of deaths/total number of animals) ([2]; 5 mg/kg, TID, q8h, 5 min of 3rd dosing): 0/4 | Mortality (total number of deaths/total number of animals) ([2]; 5 mg/kg, TID, q8h, 1 h of 1st dosing): 0/4 | Mortality (total number of deaths/total number of animals) ([2]; 5 mg/kg, TID, q8h, 1 h of 2nd dosing): 0/4 | Mortality (total number of deaths/total number of animals) ([2]; 5 mg/kg, TID, q8h, 1 h of 3rd dosing): 0/4 | mortality after the 1st dosing ([2]; 10 mg/kg): one of the four animals was found dead | Body Weight, individual animals No. 1-4 ([2]; 10 mg/kg, 1st dosing (recorded before treatment)): 22 g (2×) and 23 g (2×) | Body Weight, individual animals No. 1-4 ([2]; 10 mg/kg, 2nd dosing (2nd and 3rd doses not administered)): 21 g (2×) and dead and 23 g | Body Weight, individual animals No. 1-4 ([2]; 10 mg/kg, 3rd dosing (2nd and 3rd doses not administered)): 21* g (2×) and 23* g | Mortality (total number of deaths/total number of animals) ([2]; 10 mg/kg, 5 min of 1st dosing): 0/4 | Mortality (total number of deaths/total number of animals) ([2]; 10 mg/kg, 5 min of 2nd dosing (2nd and 3rd doses not administered)): 1/4 | Mortality (total number of deaths/total number of animals) ([2]; 10 mg/kg, 5 min of 3rd dosing (2nd and 3rd doses not administered)): 1/4 | Mortality (total number of deaths/total number of animals) ([2]; 10 mg/kg, 1 h of 1st dosing): 1/4 | Mortality (total number of deaths/total number of animals) ([2]; 10 mg/kg, 1 h of 2nd dosing (2nd and 3rd doses not administered)): 1/4 | Mortality (total number of deaths/total number of animals) ([2]; 10 mg/kg, 1 h of 3rd dosing (2nd and 3rd doses not administered)): 1/4 | Body Weight, individual animals No. 1-4 [2, 6]: 21* g (2×) and 24* g | Mortality (total number of deaths/total number of animals) [2, 6]: 1/4 | Body Weight, individual animals No. 1-4 [2, 7]: 21* g (2×) and 24* g | Mortality (total number of deaths/total number of animals) [2, 7]: 1/4 | Body Weight, individual animals No. 1-4 [2, 8]: 22* g (2×) and 23* g | Mortality (total number of deaths/total number of animals) [2, 8]: 1/4 | tolerability i.v. in ICR mice ([2]; 15 mg/kg/24h i.v. (data not shown)): tolerated | Body Weight, individual animals No. 1-4 ([2]; 30 mg/kg, 1st dosing (recorded before treatment)): 21 g and 22 g and 23 g and 24 g | Body Weight, individual animals No. 1-4 ([2]; 30 mg/kg, 2nd dosing): dead | Mortality (total number of deaths/total number of animals) ([2]; 30 mg/kg, 5 min of 1st dosing): All animals were found dead and 4/4 | Mortality (total number of deaths/total number of animals) ([2]; 30 mg/kg, 1 h of 1st dosing): All dead | Mortality (total number of deaths/total number of animals) ([2]; 30 mg/kg, 1 h of 3rd dosing): All dead | tolerability ([2]; 10 and 30 mg/kg dosages): not tolerated | Body Temperature [2, 9]: − | Death [2, 9]: − | Dec. Palpebral Size [2, 9]: − | Diarrhea [2, 9]: − | Inc. Palpebral Size [2, 9]: − | Lacrimation [2, 9]: − | Others [2, 9]: E | Piloerection [2, 9]: − | Respiration [2, 9]: D± | Salivation F.V. [2, 9]: − | Skin Color [2, 9]: C± | Body Temperature [2, 10]: − | Death [2, 10]: −
